For the series, the system named is H4. As to the kind of experiment: Toxicity in human H4 cells at 10 uM. In kind it is cell-based. As to conditions: h4, 10 µM.

This note sets out measurements from ChEMBL document CHEMBL1157898 (Bioorg Med Chem Lett, 2010).

Structures are written as SMILES.

Regarding `COc1cc(OC)c(C=C2C(O)=Nc3ccccc32)c(OC)c1` [IC261], the Activity was determined as 40 µM.
